Measurements as given in patent US4485110A, “β-Lactam compounds, and use” (priority 1980, dated 1984).
Read-outs that look alike come from different tables or passages of the source.

Experiments:
Experiment in all cases: Antibacterial activity, broth MIC
Format in all cases: cell-based
[1] = test system: S. pneumoniae CN 33; details: Streptococcus pneumoniae, CN33, compound alone
From the text: (§1) The antibacterial activity of a number of compounds described in the foregoing Examples against a number of organisms is shown in Tables 1 and 10.

[2] = test system: E. cloacae N 1; details: Enterobacter cloacae, N1, compound alone
From the text: as §1

[3] = test system: C. freundii E 8; details: Citrobacter freundii
From the text: as §1

[4] = test system: E. coli ESS; details: Escherichia coli, read-out: Broth MIC
From the text: as §1

[5] = test system: E. coli 0111; details: Escherichia coli, compound alone
From the text: as §1

[6] = test system: S. aureus Oxford; details: Staphylococcus aureus, compound alone
From the text: as §1

[7] = test system: S. sonnei MB 11967; details: Shigella sonnei, MB11967, compound alone
From the text: as §1

[8] = test system: S. aureus 1517; details: Staphylococcus aureus, compound alone
From the text: as §1

[9] = test system: K. aerogenes A; details: Klebsiella aerogenes; compound alone, broth; read-out: Broth MIC
From the text: as §1

[10] = test system: B. subtilis A; details: Bacillus subtilis, compound alone
From the text: as §1

[11] = test system: P. morganii I 580; details: Morganella morganii, I580, compound alone
From the text: as §1

[12] = test system: P. rettgeri WM 16; details: Providencia rettgeri, WM16, compound alone
From the text: as §1

[13] = test system: P. vulgaris WO 91; details: Proteus vulgaris, WO91, compound alone
From the text: as §1

[14] = test system: S. typhimurium CT 10; details: Salmonella enterica, compound alone
From the text: as §1

[15] = test system: P. mirabilis 977; details: Proteus mirabilis, compound alone
From the text: as §1

[16] = test system: E. coli JT 39 R^+; details: Escherichia coli; compound alone, broth; read-out: Broth MIC
From the text: as §1

[17] = test system: S. marcescens US 20; details: Serratia marcescens
From the text: as §1

[18] = test system: S. aureus Russell; details: Staphylococcus aureus, compound alone
From the text: as §1

[19] = test system: S. faecalis I; details: Enterococcus faecalis, read-out: Broth MIC
From the text: as §1

[20] = test system: P. aeruginosa A; details: Pseudomonas aeruginosa, compound alone
From the text: as §1

[21] = test system: S. pyogenes CN 10; details: Streptococcus pyogenes, CN10, compound alone
From the text: as §1

[22] = E8, compound alone, broth, read-out: Broth MIC
[23] = US20, compound alone, broth, read-out: Broth MIC

Compound: C/C=C1/C(=O)N2C(C(=O)O)=C(CCC)SC12 (racemic) [Compound 49, (5RS)-Sodium(Z)-6-Ethylidene-2-n-propylpenem-3-carboxylate]
- MIC [1]: ≤ 0.2 µg/mL
- MIC [2]: 62 µg/mL
- MIC ([3]; E8, read-out: Broth MIC): 125 µg/mL
- MIC ([4]; compound alone, broth): 1 µg/mL
- MIC [5]: 125 µg/mL
- MIC [6]: 1 µg/mL
- MIC [7]: 62 µg/mL
- MIC [8]: 62 µg/mL
- MIC [9]: 31 µg/mL
- MIC [10]: 1 µg/mL
- MIC [11]: 31 µg/mL
- MIC [12]: 62 µg/mL
- MIC [13]: 62 µg/mL
- MIC [14]: 62 µg/mL
- MIC [15]: 62 µg/mL
- MIC [16]: 62 µg/mL
- MIC ([17]; US20, read-out: Broth MIC): 125 µg/mL
- MIC [18]: 2 µg/mL
- MIC [19]: 125 µg/mL
- MIC [20]: > 250 µg/mL

Compound: CC=C1C(=O)N2C(C(=O)O)=C(SCCN)SC12 (racemic) [Compound 101, (5RS)-Sodium 2-(2-aminoethylthio)-6-ethylidenepenem-3-carboxylate]
- MIC [21]: 3.1 µg/mL
- MIC [2]: 100 µg/mL
- MIC [3, 22]: 100 µg/mL
- MIC ([4]; compound alone, broth): 12.5 µg/mL
- MIC [5]: 100 µg/mL
- MIC [6]: 3.1 µg/mL
- MIC [7]: 100 µg/mL
- MIC [8]: > 100 µg/mL
- MIC [9]: 100 µg/mL
- MIC [10]: 12.5 µg/mL
- MIC [11]: > 100 µg/mL
- MIC [12]: 100 µg/mL
- MIC [13]: 100 µg/mL
- MIC [14]: 100 µg/mL
- MIC [15]: > 100 µg/mL
- MIC [16]: 100 µg/mL
- MIC [17, 23]: > 100 µg/mL
- MIC [18]: 3.1 µg/mL
- MIC ([19]; compound alone, broth): > 100 µg/mL
- MIC [20]: > 100 µg/mL

Compound: CC=C1C(=O)N2C(C(=O)O)=C([S+]([O-])CC)SC12 (racemic) [Compound 103, (5RS)-Sodium 6-Ethylidene-2-ethylsulphinylpenem-3-carboxylate]
- MIC [1]: 25 µg/mL
- MIC [21]: 12.5 µg/mL
- MIC [2]: > 100 µg/mL
- MIC [3, 22]: > 100 µg/mL
- MIC ([4]; compound alone, broth): 100 µg/mL
- MIC [5]: > 100 µg/mL
- MIC [6]: 50 µg/mL
- MIC [7]: > 100 µg/mL
- MIC [8]: > 100 µg/mL
- MIC [9]: > 100 µg/mL
- MIC [10]: 25 µg/mL
- MIC [11]: > 100 µg/mL
- MIC [12]: > 100 µg/mL
- MIC [13]: > 100 µg/mL
- MIC [14]: > 100 µg/mL
- MIC [15]: 100 µg/mL
- MIC [16]: > 100 µg/mL
- MIC [17, 23]: > 100 µg/mL
- MIC [18]: > 100 µg/mL
- MIC ([19]; compound alone, broth): > 100 µg/mL
- MIC [20]: > 100 µg/mL

Compound: CCSC1=C(C(=O)O)N2C(=O)C(=C(C)C)C2S1 (racemic) [Compound 129, (5RS)-Sodium 2-Ethylthio-6-isopropylidenepenem-3-carboxylate]
- MIC [1]: 1.6 µg/mL
- MIC [21]: 0.4 µg/mL
- MIC [4]: 12.5 µg/mL
- MIC [6]: 12.5 µg/mL
- MIC [10]: 25 µg/mL
- MIC [18]: 12.5 µg/mL
- MIC ([19]; compound alone, broth): 50 µg/mL

Compound: C/C=C1\C(=O)N2C(C(=O)O)=C(SCC)SC12 (racemic) [Compound 29, (5RS)-Sodium (E)-6-Ethylidene-2-ethylthiopenem-3-carboxylate]
- MIC [1]: 1 µg/mL
- MIC [21]: 4 µg/mL
- MIC [2]: 31 µg/mL
- MIC [3, 22]: 62 µg/mL
- MIC ([4]; compound alone, broth): 2 µg/mL
- MIC [5]: 31 µg/mL
- MIC [6]: 2 µg/mL
- MIC [7]: 62 µg/mL
- MIC [8]: 16 µg/mL
- MIC [9]: 16 µg/mL
- MIC [10]: 2 µg/mL
- MIC [11]: 31 µg/mL
- MIC [12]: 62 µg/mL
- MIC [13]: 62 µg/mL
- MIC [14]: 62 µg/mL
- MIC [15]: 125 µg/mL
- MIC [16]: 31 µg/mL
- MIC [17, 23]: 62 µg/mL
- MIC ([19]; compound alone, broth): 250 µg/mL
- MIC [20]: > 500 µg/mL

Compound: C/C=C1/C(=O)N2C(C(=O)O)=C(C)SC12 (racemic) [Compound 76, (5RS)-Sodium (Z)-Ethylidene-2-methylpenem-3-carboxylate]
- MIC [2]: > 100 µg/mL
- MIC [3, 22]: 100 µg/mL
- MIC ([4]; compound alone, broth): 6.2 µg/mL
- MIC [5]: 100 µg/mL
- MIC [6]: 12.5 µg/mL
- MIC [7]: 100 µg/mL
- MIC [8]: 50 µg/mL
- MIC [9]: > 100 µg/mL
- MIC [10]: 25 µg/mL
- MIC [11]: 100 µg/mL
- MIC [12]: > 100 µg/mL
- MIC [13]: > 100 µg/mL
- MIC [14]: 100 µg/mL
- MIC [15]: 100 µg/mL
- MIC [16]: 100 µg/mL
- MIC [17, 23]: > 100 µg/mL
- MIC [18]: 6.2 µg/mL
- MIC ([19]; compound alone, broth): > 100 µg/mL
- MIC [20]: 100 µg/mL

Compound: CC=C1C(=O)N2C(C(=O)O)=C(Sc3ccccn3)SC12 (racemic) [Compound 99, (5RS)-Sodium 6-Ethylidene-2-(2-pyridylthio)penem-3-carboxylate]
- MIC [21]: 1.6 µg/mL
- MIC [2]: 25 µg/mL
- MIC [3, 22]: 100 µg/mL
- MIC ([4]; compound alone, broth): 3.1 µg/mL
- MIC [5]: 100 µg/mL
- MIC [6]: 12.5 µg/mL
- MIC [7]: 50 µg/mL
- MIC [8]: 100 µg/mL
- MIC [9]: 50 µg/mL
- MIC [10]: 6.2 µg/mL
- MIC [11]: 50 µg/mL
- MIC [12]: 25 µg/mL
- MIC [13]: 50 µg/mL
- MIC [14]: 50 µg/mL
- MIC [15]: 100 µg/mL
- MIC [16]: 50 µg/mL
- MIC [17, 23]: 50 µg/mL
- MIC [18]: 6.2 µg/mL
- MIC ([19]; compound alone, broth): > 100 µg/mL
- MIC [20]: > 100 µg/mL

Compound: C/C=C1/C(=O)N2C(C(=O)O)=CSC12 (racemic) [Compound 40, (5RS)-Sodium(Z)-6-Ethylidenepenem-3-carboxylate]
- MIC [1]: 31 µg/mL
- MIC [21]: 8 µg/mL
- MIC [2]: 125 µg/mL
- MIC [3, 22]: 125 µg/mL
- MIC ([4]; compound alone, broth): 16 µg/mL
- MIC [5]: 62 µg/mL
- MIC [6]: 8 µg/mL
- MIC [7]: 62 µg/mL
- MIC [8]: 125 µg/mL
- MIC [9]: 62 µg/mL
- MIC [10]: 31 µg/mL
- MIC [11]: 250 µg/mL
- MIC [12]: 125 µg/mL
- MIC [13]: 250 µg/mL
- MIC [14]: 62 µg/mL
- MIC [15]: 250 µg/mL
- MIC [16]: 62 µg/mL
- MIC [17, 23]: 250 µg/mL
- MIC [18]: 16 µg/mL
- MIC ([19]; compound alone, broth): > 250 µg/mL
- MIC [20]: 250 µg/mL

Compound: CCSC1=C(C(=O)O)N2C(=O)C(=Cc3ccccc3)C2S1 (stereo not drawn) [Compound 118, (5RS)-Sodium (Z)-6-Benzylidene-2-ethylthiopenem-3-carboxylate]
- MIC [1]: 1.6 µg/mL
- MIC [21]: 1.6 µg/mL
- MIC [2]: > 100 µg/mL
- MIC [3, 22]: > 100 µg/mL
- MIC [4]: > 1.6 µg/mL
- MIC [5]: > 100 µg/mL
- MIC [6]: 1.6 µg/mL
- MIC [7]: > 100 µg/mL
- MIC [8]: 100 µg/mL
- MIC [9]: > 100 µg/mL
- MIC [10]: 12.5 µg/mL
- MIC [11]: > 100 µg/mL
- MIC [12]: > 100 µg/mL
- MIC [13]: > 100 µg/mL
- MIC [14]: > 100 µg/mL
- MIC [15]: > 100 µg/mL
- MIC [16]: > 100 µg/mL
- MIC [17, 23]: > 100 µg/mL
- MIC [18]: 3.1 µg/mL
- MIC ([19]; compound alone, broth): > 100 µg/mL
- MIC [20]: > 100 µg/mL
